Laboratory results from patent publication US6264994A, “Compositions for treating alzheimer's disease and other amyloidoses” (priority 1998, dated 2001).
Where a name gives a salt, the structure may show the parent alone.

Columns and labels:
Alzheimer's Aβ (1-40) = target: T1, Alzheimer's Aβ (1-40) (Homo sapiens, UniProt P05067); experiment: Thioflavin T fluorometry assay of Aβ (1-40) amyloid fibril formation over 1 week; assay type: biochemical; settings: 1 hour to 1 week, 25 μM Aβ (1-40)
T1 construct: aggregates to fibrils, Thioflavin T fluorometry
Text: A previously described method of measuring amyloid fibril formation utilizing Thioflavin T fluorometry (H Naiki et al, Lab. Invest. 65:104-110, 1991; H Levine III, Protein Sci. 2:404-410, 1993; H Levine III, Amyloid: Int. J. Exp. Clin. Invest. 2:1-6, 1995; H Naiki and K. Nakakuki, Lab. Invest. 74:374-383,1996) was employed initially to identify potential therapeutic compounds capable of inhibiting Alzheimer's Aβ amyloid fibril formation. Using this sensitive assay, any decreases or increases in fluorescence was previously shown to correlate with a decrease or increase in the amount of amyloid fibrils (H Naiki et al, Lab. Invest. 65:104-110, 1991; H Levine III, Protein Sci. 2:404-410, 1993; H Levine III, Amyloid: Int. J. Exp. Clin. Invest. 2:1-6, 1995; H Naiki and K. Nakakuki, Lab. Invest. 74:374-383, 1996), allowing one to determine the identification and extent of potential inhibitors and/or enhancers of amyloid fibril formation.
In one study, the effects of various compounds on Alzheimer's Aβ (1-40) fibril formation was assessed by Thioflavin T fluorometry. Thioflavin T is known to bind to fibrillar amyloid proteins, and an increase in fluorescence correlates with an increase in amyloid fibril formation, whereas a decrease in fluorescence correlates with a decrease in amyloid fibril formation. The Alzheimer's Aβ protein (1-40) when incubated at 37° C. tends to spontaneously form amyloid fibrils which increase in quantity over time. […]
To assess the effects of each compound on Aβ (1-40) fibril formation, 50 μl aliquots were taken from each tube for analysis at 1 hr, 1 day, 3 days, and 1 week. […] Fluorescence emission at 482 nm was measured on a Turner instrument-model 450 fluorometer at an excitation wavelength of 450 nm. For each determination,the fluorometer was calibrated by zeroing in the presence of the Thioflavin T reagent alone, and by setting the 50 ng/ml riboflavin (Sigma Chemical Co., St. Louis, Mo.) in the Thioflavin T reagent to 1800 fluorescence units. […]

Aβ (1-40) = experiment: Solid phase binding assay of Aβ--Aβ interactions (amyloid fibril growth); settings: FIG. 3; 1.25 mM of test compounds
Text: In Alzheimer's disease and other amyloidoses, amyloid fibril growth is believed to involve amyloid protein self-interactions (ie. Aβ--Aβ interactions). Any potential effective therapeutic agent for amyloid deposition, accumulation and/or persistence should also be capable of causing an inhibition of amyloid protein self-interactions. This is important for preventing any new amyloid fibril formation when treating Azheimer's disease patients at early stages of the disease. ELISA methodologies (i.e. solid phase binding assays) were therefore used to identify compounds which were capable of inhibiting Aβ--Aβ interactions (i.e. Alzheimer's amyloid fibril growth).
Aβ (1-40) was first labelled with biotin according to the following protocol. 1 mg of Aβ (1-40) (Bachem Inc., Torrance, Calif., USA; Lot #WL934) was dissolved in 200 μl of PBS (pH 8.0) and incubated for 1 week at 37° C. […] The amount of biotin incorporated was then determined using the HABA (2-(4'-hydroxyazo-benzene)benzoic acid) method (according to the manufacturer's protocol; Pierce).
2 μg of unlabelled Aβ in 40 μl of Tris-buffered saline containing 100 mM Tris-HCl, 50 mM NaCl, 3 mM NaN3, pH 7.0 (TBS) was allowed to bind overnight at 4° C. to microtiter wells (Nunc plates, Maxisorb). […] The reaction was stopped with 50 μl of 4N H2 SO4 and read on a Model 450 microplate reader (Biorad, Hercules, Calif., USA) at 490 nm. […]

[1] = system: Alzheimer's disease patients; settings: literature; cited from earlier work
[2] = Example 1, FIG. 1, 1.25 mM test compound (PTI-00700 at 1:227 dilution)

T1 sequence (P05067 672-711): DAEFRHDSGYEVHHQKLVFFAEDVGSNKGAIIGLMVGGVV

effect on Aβ (1-40) amyloid fibril formation (Alzheimer's Aβ (1-40); [2])	effect on amyloid fibril growth / Aβ--Aβ interactions (Aβ (1-40))	SMILES	cognitive improvement in Alzheimer's disease patients [1]	other results
did not significantly inhibit	no inhibitory effects	N[C@H]1C(O)O[C@H](CO)[C@@H](O)[C@@H]1O (some centres unmarked) [PTI-00800, glucosamine]		
did not significantly inhibit	no inhibitory effects	N[C@H]1C(O)O[C@H](CO)[C@@H](O)[C@@H]1O (some centres unmarked) [PTI-00900, glucosamine]		

The next lines start with the compound.

SMILES	effect on Aβ (1-40) amyloid fibril formation (Alzheimer's Aβ (1-40); [2])	effect on amyloid fibril growth / Aβ--Aβ interactions (Aβ (1-40))	cognitive improvement in Alzheimer's disease patients [1]	other results
N[C@H]1C(O)O[C@H](CO)[C@@H](O)[C@@H]1O (some centres unmarked) [PTI-00712, glucosamine]				effect on Aβ (1-40) amyloid fibril formation (Alzheimer's Aβ (1-40); Example 2, FIG. 2, 1.25 mM test compound): no inhibitory effect
Nc1c2c(nc3ccccc13)CCCC2 [Tacrine hydrochloride]			limited success	side effects [1]: liver toxicity
COc1cc2c(cc1OC)C(=O)C(CC1CCN(Cc3ccccc3)CC1)C2 (centres unmarked) [donepezil]			slight cognitive improvement	
